Key:
[1] = target: T1, Stress-70 protein, mitochondrial (Homo sapiens, UniProt P38646)
Description: Binding affinity to mortalin substrate binding domain (unknown origin) assessed as change in Gibbs free energy

[2] = target: T1, Stress-70 protein, mitochondrial; experiment: Binding affinity to mortalin substrate binding domain (unknown origin)
[3] = test system: A2780; experiment: Antiproliferative activity against human A2780 cells assessed as cell growth inhibition measured after 72 hrs by CellTiter 96 non-radioactive cell proliferation assay; format: functional, cell-based; conditions: A2780, 72 h
[4] = test system: A2780; experiment: Antiproliferative activity against human A2780 cells assessed as cell growth inhibition at 2 to 8 uM measured after 72 hrs by CellTiter 96 non-radioactive cell proliferation assay relative to control; format: functional

T1 sequence (P38646 whole entry, the tested form may be a part): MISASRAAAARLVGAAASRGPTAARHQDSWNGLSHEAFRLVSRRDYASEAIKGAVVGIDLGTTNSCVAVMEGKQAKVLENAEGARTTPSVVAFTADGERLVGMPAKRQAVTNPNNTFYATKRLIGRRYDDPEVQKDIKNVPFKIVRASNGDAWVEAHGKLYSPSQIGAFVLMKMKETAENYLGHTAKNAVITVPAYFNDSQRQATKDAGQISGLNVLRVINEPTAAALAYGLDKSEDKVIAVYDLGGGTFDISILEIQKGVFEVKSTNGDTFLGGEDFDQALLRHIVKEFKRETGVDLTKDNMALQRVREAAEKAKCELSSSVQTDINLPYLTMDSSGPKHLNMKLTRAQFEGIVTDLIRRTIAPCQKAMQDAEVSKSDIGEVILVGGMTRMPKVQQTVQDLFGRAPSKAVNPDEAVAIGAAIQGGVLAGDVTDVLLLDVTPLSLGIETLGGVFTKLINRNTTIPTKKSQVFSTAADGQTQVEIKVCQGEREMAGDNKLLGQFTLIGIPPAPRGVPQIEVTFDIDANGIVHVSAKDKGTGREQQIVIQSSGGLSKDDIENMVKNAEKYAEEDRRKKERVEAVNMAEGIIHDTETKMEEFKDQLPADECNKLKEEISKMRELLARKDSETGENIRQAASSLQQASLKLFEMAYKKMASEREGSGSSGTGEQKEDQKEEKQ

## CC1(C)CCNc2ccc(NC(=O)Nc3ccc([N+](=O)[O-])cc3)cc21
[1]
  deltaG: -8.2 kcal/mol
[2]
  Kd: 1.1 µM
[3]
  IC50: 6.9 µM

## CN1c2ccc(NC(=S)Nc3ccc([N+](=O)[O-])cc3)cc2C(C)(C)C(O)C1(C)C (configuration not stated)
[3]
  IC50: 10 µM
[4]
  Efficacy: 25%

## CN1c2ccc(NC(=S)Nc3ccc(OC(F)(F)F)cc3)cc2C(C)(C)C(=O)C1(C)C
[1]
  deltaG: -7.7 kcal/mol
[2]
  Kd: 2.4 µM
[3]
  IC50: 5.4 µM

## CC1(C)CC(C)(C)c2cc(NC(=S)Nc3ccc([N+](=O)[O-])cc3)ccc2S1 [SHETA-2]
[1]
  deltaG: -8.5 kcal/mol
[2]
  Kd: 0.6 µM

## CN1c2ccc(NC(=O)Nc3ccc([N+](=O)[O-])cc3)cc2C(C)(C)C(=O)C1(C)C
[1]
  deltaG: -8.9 kcal/mol
[2]
  Kd: 0.3 µM
[3]
  IC50: 3.8 µM

## CN1c2ccc(NC(=O)Nc3ccc(C(F)(F)F)cc3)cc2C(C)(C)C(O)C1(C)C (configuration not stated)
[1]
  deltaG: -8.4 kcal/mol
[2]
  Kd: 0.7 µM
[3]
  IC50: 6.7 µM

## CC1(C)CCNc2ccc(NC(=S)Nc3ccc(OC(F)(F)F)cc3)cc21
[1]
  deltaG: -7.2 kcal/mol
[2]
  Kd: 5.4 µM
[3]
  IC50: 7.1 µM

## CC1(C)CCNc2ccc(NC(=S)Nc3ccc([N+](=O)[O-])cc3)cc21
[1]
  deltaG: -7.9 kcal/mol
[2]
  Kd: 1.6 µM
[3]
  IC50: 7.1 µM

## CN1c2ccc(NC(=S)Nc3ccc(OC(F)(F)F)cc3)cc2C(C)(C)C(O)C1(C)C (configuration not stated)
[1]
  deltaG: -7.6 kcal/mol
[2]
  Kd: 2.9 µM
[3]
  IC50: 13.1 µM

## CN1c2ccc(NC(=S)Nc3ccc(C(F)(F)F)cc3)cc2C(C)(C)C(O)C1(C)C (configuration not stated)
[1]
  deltaG: -7.7 kcal/mol
[2]
  Kd: 2.3 µM
[3]
  IC50: 7.6 µM

## CN1c2ccc(NC(=S)Nc3ccc(C(F)(F)F)cc3)cc2C(C)(C)C(=O)C1(C)C
[3]
  IC50: 3.9 µM
[4]
  Efficacy: 90.8%

## CC1(C)CCNc2ccc(NC(=S)Nc3ccc(C(F)(F)F)cc3)cc21
[1]
  deltaG: -7.5 kcal/mol
[2]
  Kd: 3.3 µM
[3]
  IC50: 6 µM

## CN1c2ccc(NC(=O)Nc3ccc(C(F)(F)F)cc3)cc2C(C)(C)C(=O)C1(C)C
[1]
  deltaG: -8 kcal/mol
[2]
  Kd: 1.5 µM
[3]
  IC50: 2.58 µM

## CN1c2ccc(NC(=O)Nc3ccc(OC(F)(F)F)cc3)cc2C(C)(C)C(O)C1(C)C (configuration not stated)
[1]
  deltaG: -8.2 kcal/mol
[2]
  Kd: 1.1 µM
[3]
  IC50: 7.8 µM

## CN1c2ccc(NC(=O)Nc3ccc(N)cc3)cc2C(C)(C)C(=O)C1(C)C
[1]
  deltaG: -8.2 kcal/mol
[2]
  Kd: 1.1 µM
[3]
  IC50: 7.7 µM

## CN1c2ccc(NC(=O)Nc3ccc(OC(F)(F)F)cc3)cc2C(C)(C)C(=O)C1(C)C
[1]
  deltaG: -7.9 kcal/mol
[2]
  Kd: 1.8 µM
[3]
  IC50: 2.4 µM

## CN1c2ccc(NC(=S)Nc3ccc([N+](=O)[O-])cc3)cc2C(C)(C)C(=O)C1(C)C
[1]
  deltaG: -8.2 kcal/mol
[2]
  Kd: 1.1 µM
[3]
  IC50: 4.4 µM

## CC1(C)CC[N+](C)(C)c2ccc(NC(=O)Nc3ccc([N+](=O)[O-])cc3)cc21
[1]
  deltaG: -8.5 kcal/mol
[2]
  Kd: 0.7 µM
[3]
  IC50: 6.6 µM

## CN1c2ccc(NC(=O)Nc3ccc([N+](=O)[O-])cc3)cc2C(C)(C)C(O)C1(C)C (configuration not stated)
[1]
  deltaG: -8 kcal/mol
[2]
  Kd: 1.6 µM
[3]
  IC50: 8.4 µM

## CN1c2ccc(NC(=S)Nc3ccc([N+](=O)[O-])cc3)cc2C(C)(C)CC1(C)C
[1]
  deltaG: -8.7 kcal/mol
[2]
  Kd: 0.5 µM
[3]
  IC50: 4.5 µM
